Data reported in US12138320B2, “Composition and methods for tumor imaging and treatment” (The University of Chicago, priority 2020, dated 2024).

Experiments:
[1] = target: T1, NCEH1 (Mus musculus, UniProt Q8BLF1); test: In vivo competition: oral JW480 pre-treatment, then i.v. [18F]JW199 and PET-CT
T1 construct: For murine proteomes, mouse tissues were Dounce-homogenized on ice in cold PBS; from tissue; host or cells: athymic nude mice: heart, kidney, lung, liver, brain, spleen and other organs
T1 sequence (Q8BLF1 1-408): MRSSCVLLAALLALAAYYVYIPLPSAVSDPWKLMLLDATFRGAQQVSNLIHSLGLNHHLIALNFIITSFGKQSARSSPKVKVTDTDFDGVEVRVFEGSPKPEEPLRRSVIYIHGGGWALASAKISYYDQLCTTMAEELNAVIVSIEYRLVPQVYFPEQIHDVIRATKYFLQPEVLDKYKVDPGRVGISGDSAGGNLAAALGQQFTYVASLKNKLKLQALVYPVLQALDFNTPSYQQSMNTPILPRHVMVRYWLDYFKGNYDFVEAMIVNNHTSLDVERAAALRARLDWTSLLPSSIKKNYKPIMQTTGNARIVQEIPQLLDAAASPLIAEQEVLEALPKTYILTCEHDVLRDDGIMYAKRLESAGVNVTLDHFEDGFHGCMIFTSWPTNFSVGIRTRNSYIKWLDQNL
Method: In vivo microPET/CT imaging: All imaging was performed by the Integrated Small Animal Imaging Research Resource (iSAIRR) at the University of Chicago (Chicago, Illinois, United States of America) on a β-Cube and X-Cube (Molecubes NV, Ghent, Belgium). Athymic nude mice (males and females, aged 6 to 8 weeks; HSD strain, Harlan-Envigo, Indianapolis, Indiana, United States of America) were anesthetized via inhalation with 1.5-2% isoflurane and injected with approximately 150 μCi (5.55 Megabecquerel (MBq)) of [^18F]JW199 in 150 μL of physiologic saline through the lateral tail vein, followed by awake incubation for 1 hour and 45 minutes. MicroCT images were acquired using the general purpose protocol, with energy of 50 KeV and a tube current of 100 μA. Respiration rate and body temperature of the animal were constantly monitored during the entire scanning period with the p-Cube and X-Cube onboard monitoring system. A 1 hr dynamic PET acquisition was started 2 hours after [^18F]JW199 injection. Dynamic reconstruction was performed for 6 frames of 10 minutes each using a three-dimensional (3D) OSEM algorithm with 400 μm isometric voxel size. For competition studies, mice were pretreated with either 80 mg/kg JW480 or vehicle (polyethylene glycol 300 (PEG300)) via oral gavage, followed 4 hours later by dosing with [^18F]JW199 and imaging as described. For the MDA-MB231 study, [^18F]JW199 injection was followed immediately by dynamic PET acquisition (90 min) and microCT scanning as detailed above. Dynamic PET image reconstruction included 9 frames of 10 minutes each.
Dynamic reconstruction was performed using a three-dimensional OSEM algorithm with 400 μm isometric voxel size. […] 3D regions of interest (ROIs) were drawn and standardized uptake values (SUVs) and percent injected dose per cubic centimeter of tissue (% ID/cc) were calculated for each ROI and time point. % ID/cc was calculated as a ratio of tissue radioactivity concentration (mCi/g) at time of scan to total injected activity (millicurie (mCi)) at time of scan.

[2] = target: T1, NCEH1; test: Gel-based competitive ABPP of murine tissue membrane proteomes after JW480 pre-treatment; type: in vivo; settings: JW480 80 mg/kg; brain, heart, kidney, lung, liver, spleen membrane proteomes
Description: FIGS. 9A and 9B: Gel-based competitive activity-based protein profiling (ABPP) profiles of several murine membrane proteomes following treatment with fluorine-18-labeled 2-isopropylphenyl-(4-(2-fluoroethoxy)phenethyl)carbamate ([^18F]JW199) with and without 2-isopropylphenyl)-(2-(naphthalen-2-yl)ethyl)carbamate (JW480; 80 milligrams per kilogram (mg/kg)). FIG. 9A is a schematic drawing showing the chemical structure of JW480. FIG. 9B is a composite gel image of the ABPP profiles of the murine membrane proteomes from brain, heart, kidney, lung, liver and spleen following treatment with [^18F]JW199 with or without JW480.
Proteome Preparation: Human PC3 and MDA-MB231 cells were grown in Roswell Park Memorial Institute (RPMI) medium and Dulbecco's Modified Eagle Medium (DMEM), respectively, supplemented with 10% fetal bovine serum (FBS) and 2 mM L-glutamine, and cultured in a humidified 5% CO2 incubator at 37° C. […] Protein concentrations were determined using a Bradford protein assay kit (Bio-Rad, Hercules, California, United States of America)). […]
Gel-based Activity Profiling: Cell lysates were treated with 1 μM fluorophosphonate-rhodamine (FP-rho) for 30 min at room temperature (50 μL total reaction volume). […] Densitometric quantification of band intensities were used to calculate the percent inhibition via JW199. […]

[3] = target: T2, NCEH1 (Homo sapiens, UniProt Q6PIU2); test: Gel-based competitive ABPP (FP-Rho) of cancer cells treated in situ (live cells); type: cell-based; settings: for potency against NCEH1 compared to JW199: MDA-MB231 cells treated in situ, 0-25 μM (FIG. 5B)
T2 construct: serine hydrolase activity in membrane proteome fractions of MDA-MB231 breast cancer cells treated with the indicated concentrations; endogenous in cells; host or cells: PC3 prostate cancer cells; MDA-MB231 breast cancer cells
T2 sequence (Q6PIU2 1-408): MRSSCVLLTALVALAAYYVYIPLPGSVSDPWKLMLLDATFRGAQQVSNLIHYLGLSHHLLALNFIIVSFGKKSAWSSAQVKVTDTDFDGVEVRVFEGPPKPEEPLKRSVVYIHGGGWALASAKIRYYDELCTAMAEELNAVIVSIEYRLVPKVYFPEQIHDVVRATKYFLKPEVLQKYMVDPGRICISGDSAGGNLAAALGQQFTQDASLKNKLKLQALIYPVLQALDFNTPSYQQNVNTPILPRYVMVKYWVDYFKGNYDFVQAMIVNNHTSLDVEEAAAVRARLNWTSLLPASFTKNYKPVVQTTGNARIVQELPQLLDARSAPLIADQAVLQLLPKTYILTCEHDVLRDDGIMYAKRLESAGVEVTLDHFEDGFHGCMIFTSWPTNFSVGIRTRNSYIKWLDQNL
Method: (§1) Proteome Preparation: Human PC3 and MDA-MB231 cells were grown in Roswell Park Memorial Institute (RPMI) medium and Dulbecco's Modified Eagle Medium (DMEM), respectively, supplemented with 10% fetal bovine serum (FBS) and 2 mM L-glutamine, and cultured in a humidified 5% CO2 incubator at 37° C. Cells were washed twice with phosphate buffered saline (PBS, pH 7.5), collected by scraping, resuspended in 0.2 ml PBS, sonicated, and fractionated via centrifugation (100,000×g, 45 min) into a pellet (containing membrane proteins) and supernatant (containing soluble proteins). For murine proteomes, mouse tissues were Dounce-homogenized on ice in cold PBS, followed by a low-speed spin (1,400×g, 5 min) to remove debris. After sonication, the membrane and soluble proteomes were fractionated as described above. All sample pellets were washed and resuspended in PBS via sonication. Protein concentrations were determined using a Bradford protein assay kit (Bio-Rad, Hercules, California, United States of America)). Samples were stored at −80° C. until use.
Cellular JW199 Treatments: JW199 was dissolved in dimethyl sulfoxide (DMSO) vehicle, which was diluted into media or buffer before addition to cells or proteomes, respectively. For in vitro proteome experiments, the final DMSO concentration was 4%. For live cell (in situ) treatments, 2×10^6 cells were seeded in 6 cm dishes (100% confluency) 24 hours prior to JW199 treatment in serum-free media. At the end of the experiment, cells were washed and collected, as described above, for gel-based activity profiling.
Gel-based Activity Profiling: Cell lysates were treated with 1 μM fluorophosphonate-rhodamine (FP-rho) for 30 min at room temperature (50 μL total reaction volume). Reactions were quenched with one volume of standard 4× sodium dodecyl sulfate/polyacrylamide gel electrophoresis (SDS/PAGE) reducing sample buffer, resolved on 10% acrylamide SDS/PAGE gels, and visualized in-gel with a fluorescence scanner sold under the tradename CHEMIDOC™ MP (Bio-Rad, Hercules, California, United States of America). Densitometric quantification of band intensities were used to calculate the percent inhibition via JW199. 50% inhibitory concentration (IC50) values were determined from dose-response curves constructed in GraphPad Prism software from three independent replicates for each inhibitor concentration. For competitive ABPP with JW576, tumor lysates were treated with 1 μM JW576 for 30 min at 37° C. (50 μL total reaction volume). Competitive ABPP was then conducted as described above. NCEH1 activity was calculated by densitometric quantification (ImageJ software; National Institutes of Health (NIH), Bethesda, Maryland, United States of America) of JW576-labeled band intensity (BODIPY fluorescence) from three independent replicates.

[4] = test system: other detected serine hydrolase targets; test: Family-wide gel-based profiling of serine hydrolases in MDA-MB231 and PC3 cells (selectivity); type: cell-based, human; settings: live cells
Method: as §1, with “For murine proteomes, mouse tissues were Dounce-homogenized on ice in cold PBS, followed by a low-speed spin (1,400×g, 5 min) to remove debris. After sonication, the membrane and soluble proteomes were fractionated as described above. All sample pellets were washed and resuspended in PBS via sonication.” left out, “Samples were stored at −80° C. until use.” left out
Gel-based Activity Profiling: Cell lysates were treated with 1 μM fluorophosphonate-rhodamine (FP-rho) for 30 min at room temperature (50 μL total reaction volume). Reactions were quenched with one volume of standard 4× sodium dodecyl sulfate/polyacrylamide gel electrophoresis (SDS/PAGE) reducing sample buffer, resolved on 10% acrylamide SDS/PAGE gels, and visualized in-gel with a fluorescence scanner sold under the tradename CHEMIDOC™ MP (Bio-Rad, Hercules, California, United States of America). Densitometric quantification of band intensities were used to calculate the percent inhibition via JW199. […]

CC(C)c1ccccc1OC(=O)NCCc1ccc2ccccc2c1 [JW480, 2-isopropylphenyl-(2-(naphthalen-2-yl)ethyl)carbamate]
effect of pre-treatment on radioactivity in urine and brain ([1]; JW480 80 mg/kg oral, 4 hours before tracer): slightly elevated radioactivity | effect of pre-treatment on [18F]JW199 radiotracer signal in heart, lung and kidney ([1]; JW480 80 mg/kg oral, 4 hours before tracer, 3 hours post injection): significantly diminished radiotracer signal | [18F]JW199 accumulation in kidneys and heart of competitor-treated mouse (PET-CT images) ([1]; JW480 oral, then i.v. tracer): visibly decreased | inhibition of NCEH1 in tissues of pre-treated mice [2]: specific and significant inhibition

CC(C)c1ccccc1OC(=O)NCCc1ccc(OCCCF)cc1 [JW245, 2-isopropylphenyl-(4-(3-fluoropropoxy)phenethyl)carbamate]
potency against NCEH1 compared to JW199 [3]: less potent

CC(C)c1ccccc1OC(=O)NCCc1ccc(OCCF)cc1 [JW199, 2-isopropylphenyl-(4-(2-fluoroethoxy)phenethyl)carbamate]
selectivity over other detected serine hydrolase targets [4]: > 1,000 fold | IC50 values, inhibition of NCEH1 in live cells ([3]; in situ, MDA-MB231 and PC3 cells): low nM range

CC(C)c1ccccc1OC(=O)NCCNC(=O)c1ccc2cc(OCCF)ccc2c1 [JW291, 2-isopropylphenyl (2-(6-(2-fluoroethoxy)-2-naphthamido)ethyl)carbamate]
potency against NCEH1 compared to JW199 [3]: less potent
